The source of these data is EP3720857B1, “2-OXO-5H-CHROMENO[4,3-B]PYRIDINES FOR USE IN THE TREATMENT OF HEPATITIS B” (Galapagos NV, priority 2017, dated 2019).

The assay deals with hepatitis virus B (HBV) infection. Nature of the assay: HepG2 NTCP assay (HBcAg staining as marker of HBV infection). The class given is cell-based. The conditions noted are these: HepG2-NTCP cells infected with HBV, HBV core antigen (HBcAg) as marker of infection. The text has this: The principle of the hepG2-NTCP assay is to measure the effect of a test compound on the inhibition of the hepatitis virus B (HBV) infection compared to a reference compound. To be able to infect the hepatocellular carcinoma cells (HepG2) with HBV, HepG2 cells were stably transfected with the Na+-taurocholate co-transporting polypeptide (NTCP) receptor, also referred to as Sodium/bile acid cotransporter (SLC10A1), which is necessary for HBV infection. In this assay the HBV core antigen (HBcAg) is used as a marker of HBV infection. Nuclei count is used as an indication for compound toxicity.
On day one, HepG2-NTCP cells ((Ni et al., 2014)) are seeded at 5000 cells in 50 µL per well in assay medium (DMEM high glucose supplemented with 10% non-heat inactivated (non HI) fetal bovine serum (FBS), 1% P/S, 1% L-glutamine and 1% MEM NEAA) in 384 well plate and incubated at 37°C, 5% CO2 overnight.
Compounds are prepared as 10 point serial dilutions using 1/3 dilution steps in 100% DMSO starting from 10 mM highest concentration, unless otherwise requested for very potent compounds, which started from 5mM or 1mM stock. Compounds are further diluted 1/500 in assay medium.
A negative control (vehicle: 24 wells with 0.2% DMSO) and positive control (24 wells with 100nM Myrcludex B (Cas no.: 406461-66-3), 0.2% DMSO and in 10 point DR) are included in the experiments.
On the second day, 40µl medium is removed from the cells with the plate washer (Select 405 microplate washer, Biotek). 15 µL of diluted compound series is transferred to the assay plate and cells are infected with 15 µL of HBV mix (HBV virus, 4%PEG, 1%DMSO in assay medium). The infection is performed in assay medium containing final concentration of 1% DMSO. The assay plate is incubated at 37°C, 5% CO2 overnight.
The next day, 30µl compound and HBV mix are removed from the assay plate with the plate washer and 30 µL of compound series diluted 1/500 in assay medium containing final concentration of 2.5% DMSO is added to the cell assay plate. The assay plate is incubated at 37°C, 5% CO2 for 5 days.
After 5 days of incubation, supernatant is removed from the cells with the plate washer. Cells are fixed with 50 µL of 3.7% formaldehyde added with the Well mate (Matrix technologies) and incubated for 30 min at room temperature. After fixation, cells are washed four times with phosphate buffer saline (1xPBS, 137mM NaCl, 10mM na2HPO4, 2.7mM KCl, 1.8mM KH2PO4 at pH7.4). The cells are finally subjected to HBc staining.
First, the assay plate is blocked with blocking buffer (2%FBS, 3% BSA, 0.2% TritonX100 in PBS) for 1 h at room temperature (optional to block overnight at 4°C).
After 4 washes of PBST (1XPBS + 0.05% Tween) with the plate washer, the assay plate is incubated with 30 µL diluted primary antibody (1/700 Rabbit anti-HBV core antigen, Dako, B0586 or 1/350 Rabbit anti HBV core antigen, Invitrogen, PA516368) in blocking buffer and incubated for 90 min at room temperature.
After 4 washes of PBST with the plate washer, the assay plate is incubated with 50 µL of secondary antibody (Donkey-anti-rabbit Alexa 488 antibody, Lifetechnologies A21206) 1/500 diluted in blocking buffer and incubated for 60 min at room temperature and in the dark.
The assay plate is washed 4 times with PBST on the plate washer and incubated with 50µL of DAPI (Sigma D9542, stock 5mg/mL) 1/10000 diluted in PBS for 15-30 min at room temperature and in the dark. The assay plate is now ready for read out on the InCell Analyzer 2200 (GE Healthcare).
Raw data are generated following read-out performed on InCell 2200 and are imported into the galapagos LIMS for automated calculation of percentage inhibition (PIN) and toxicity by nuclei count, using the control wells mentioned above, and creation of Dose Response curves. Table V. Hepg2 NTCP assay activity of illustrative compounds of the invention
In the case of `CC(C)C1Oc2cc(OCC3COC3)c(Cl)cc2-c2c1cc(C(=O)O)c(=O)n2C1CC1` (centres unmarked) [Compound 5, 9-chloro-1-cyclopropyl-5-isopropyl-8-(oxetan-3-ylmethoxy)-2-oxo-5H-chromeno[4,3-b]pyridine-3-carboxylic acid], the IC50 lay within 0.001 to 1 nM. Then `CC(C)C1Oc2cc(OCC3COCCO3)c(Cl)cc2-c2c1cc(C(=O)O)c(=O)n2C1CC1` (centres unmarked) [Compound 7, 9-chloro-1-cyclopropyl-8-(1,4-dioxan-2-ylmethoxy)-5-isopropyl-2-oxo-5H-chromeno[4,3-b]pyridine-3-carboxylic acid], with 0.001 to 1 nM; and `COCCCOc1ccc2c(c1Cl)OC(C(C)C)c1cc(C(=O)O)c(=O)n(C3CC3)c1-2` (centres unmarked) [Compound 8, 7-chloro-1-cyclopropyl-5-isopropyl-8-(3-methoxypropoxy) -2-oxo-5H-chromeno[4,3-b]pyridine-3-carboxylic acid], with 1 to 20 nM. Then `COc1cc2c(cc1OC)-c1c(cc(C(=O)O)c(=O)n1C1CC1)C(C(C)(C)C)O2` (centres unmarked) [Compound 9, 5-tert-butyl-1-cyclopropyl-8,9-dimethoxy-2-oxo-5H-chromeno[4,3-b]pyridine-3-carboxylic acid], with 1 to 20 nM; and `COCCCOc1cc2c(cc1OC)-c1c(cc(C(=O)O)c(=O)n1C1CC1)C(C(C)C)O2` (centres unmarked) [Compound 10, 1-cyclopropyl-5-isopropyl-9-methoxy-8-(3-methoxypropoxy) -2-oxo-5H-chromeno[4,3-b]pyridine-3-carboxylic acid], with 1 to 20 nM. Then `CCC1Oc2cc(OCCCOC)c(Cl)cc2-c2c1cc(C(=O)O)c(=O)n2C1CC1` (centres unmarked) [Compound 11, 9-chloro-1-cyclopropyl-5-ethyl-8-(3-methoxypropoxy) -2-oxo-5H-chromeno[4,3-b]pyridine-3-carboxylic acid], with 0.001 to 1 nM.

Regarding `CCC1Oc2cc(OCCCOC)c(OC)cc2-c2c1cc(C(=O)O)c(=O)n2C1CC1` (centres unmarked) [Compound 12, 1-cyclopropyl-5-ethyl-9-methoxy-8-(3-methoxypropoxy) -2-oxo-5H-chromeno[4,3-b]pyridine-3-carboxylic acid], the half-inhibitory concentration (IC50) was in the range of 1 to 20 nM.

For the molecule `COCCCOc1cc2c(cc1Cl)-c1c(cc(C(=O)O)c(=O)n1C1CC1)C(C1COC1)O2` (centres unmarked) [Compound 13, 9-chloro-1-cyclopropyl-8-(3-methoxypropoxy) -5-(oxetan-3-yl)-2-oxo-5H-chromeno[4,3-b] pyridine-3-carboxylic acid], the IC50 lay within 0.001 to 1 nM.

The molecule `COCCCOc1cc2c(cc1Cl)-c1c(cc(C(=O)O)c(=O)n1C1CC1)C(C)(C)O2` [Compound 14, 9-chloro-1-cyclopropyl-8-(3-methoxypropoxy) -5,5-dimethyl-2-oxo-chromeno [4,3-b]pyridine-3-carboxylic acid] came in with a 50% inhibitory concentration (IC50) of 1 to 20 nM.

`CCC1Oc2cc(OC)c(OC)cc2-c2c1cc(C(=O)O)c(=O)n2C1CC1` (centres unmarked) [Compound 15, 1-cyclopropyl-5-ethyl-8,9-dimethoxy-2-oxo-5H-chromeno[4,3-b]pyridine-3-carboxylic acid]: the IC50 lay within 20 to 100 nM.

Molecule `COc1cc2c(cc1OC)-c1c(cc(C(=O)O)c(=O)n1C1CC1)C(CO)O2` (centres unmarked) [Compound 18, 1-cyclopropyl-5-(hydroxymethyl)-8,9-dimethoxy-2-oxo-5H-chromeno[4,3-b]pyridine-3-carboxylic acid] gave an IC50 of 20 to 100 nM. In the case of `[2H]C([2H])([2H])Oc1cc2c(cc1OC)-c1c(cc(C(=O)O)c(=O)n1C1CC1)C(C(C)C)O2` (centres unmarked) [Compound 20, 1-cyclopropyl-5-isopropyl-9-methoxy-2-oxo-8-(trideuteriomethoxy)-5H-chromeno[4,3-b]pyridine-3-carboxylic acid] it was 1 to 20 nM; in that of `COc1cc2c(cc1Cl)-c1c(cc(C(=O)O)c(=O)n1C1CC1)C(C1COC1)O2` (centres unmarked) [Compound 21, 9-chloro-1-cyclopropyl-8-methoxy-5-(oxetan-3-yl)-2-oxo-5H-chromeno[4,3-b]pyridine-3-carboxylic acid], 1 to 20 nM. Turning to `COCCCOc1cc2c(cc1Cl)-c1c(cc(C(=O)O)c(=O)n1C1CC1)C(C1(C#N)CC1)O2` (centres unmarked) [Compound 22, 9-chloro-5-(1-cyanocyclopropyl)-1-cyclopropyl-8-(3-methoxypropoxy) -2-oxo-5H-chromeno[4,3-b]pyridine-3-carboxylic acid], the half-maximal inhibitory concentration (IC50) lay within 0.001 to 1 nM. Then `COCCCOc1cc2c(cc1Cl)-c1c(cc(C(=O)O)c(=O)n1C1CC(F)(F)C1)C(C(C)C)O2` (centres unmarked) [Compound 23, 9-chloro-1-(3,3-difluorocyclobuty 1)-5-isopropyl-8-(3-methoxypropoxy) -2-oxo-5H-chromeno[4,3-b]pyridine-3-carboxylic acid], with 1 to 20 nM. In the case of `COCCCOc1cc2c(cc1C#N)-c1c(cc(C(=O)O)c(=O)n1C1CC1)C(C(C)C)O2` (centres unmarked) [Compound 24, 9-cyano-1-cyclopropyl-5-isopropyl-8-(3-methoxypropoxy) -2-oxo-5H-chromeno[4,3-b]pyridine-3-carboxylic acid] it was 0.001 to 1 nM; in that of `COCCOc1cc2c(cc1Cl)-c1c(cc(C(=O)O)c(=O)n1C1CC1)C(C1(C)COC1)O2` (centres unmarked) [Compound 25, 9-chloro-1-cyclopropyl-8-(2-methoxyethoxy)-5-(3-methyloxetan-3-yl)-2-oxo-5H-chromeno [4,3-b]pyridine-3-carboxylic acid], 0.001 to 1 nM; in that of `COCCCOc1cc2c(cc1F)-c1c(cc(C(=O)O)c(=O)n1C1CCC1)C(C1(C)COC1)O2` (centres unmarked) [Compound 26, 1-cyclobutyl-9-fluoro-8-(3-methoxypropoxy) -5-(3-methyloxetan-3-yl)-2-oxo-5H-chromeno[4,3-b]pyridine-3-carboxylic acid], 0.001 to 1 nM. In the case of `[2H]C1([2H])C(n2c3c(cc(C(=O)O)c2=O)C(C2(C)COC2)Oc2cc(OCCCOC)c(F)cc2-3)C1([2H])[2H]` (centres unmarked) [Compound 27, 9-fluoro-8-(3-methoxypropoxy) -5-(3-methyloxetan-3-yl)-2-oxo-1-(2,2,3,3-tetradeuteriocyclopropyl)-5H-chromeno[4,3-b]pyridine-3-carboxylic acid] it was 0.001 to 1 nM; in that of `COc1cc2c(cc1OCC1(C)COC1)OC(C(C)C)c1cc(C(=O)O)c(=O)n(C3CC3)c1-2` (centres unmarked) [Compound 28, 1-cyclopropyl-5-isopropyl-9-methoxy-8-[(3-methyloxetan-3-yl)methoxy]-2-oxo-5H-chromeno[4,3-b]pyridine-3-carboxylic acid], 1 to 20 nM; in that of `COc1cc2c(cc1OCC1CN(C)C(=O)O1)OC(C(C)C)c1cc(C(=O)O)c(=O)n(C3CC3)c1-2` (centres unmarked) [Compound 29, 1-cyclopropyl-5-isopropyl-9-methoxy-8-[(3-methyl-2-oxooxazolidin-5-yl)methoxy]-2-oxo-5H-chromeno[4,3-b]pyridine-3-carboxylic acid], 1 to 20 nM.

`COc1cc2c(cc1OCCCC#N)OC(C(C)C)c1cc(C(=O)O)c(=O)n(C3CC3)c1-2` (centres unmarked) [Compound 30, 8-(3-cyanopropoxy)-1-cyclopropyl-5-isopropyl-9-methoxy-2-oxo-5H-chromeno[4,3-b]pyridine-3-carboxylic acid] gave an IC50 of 1 to 20 nM. Then `COCCOc1cc2c(cc1OC)-c1c(cc(C(=O)O)c(=O)n1C1CC1)C(C(C)C)O2` (centres unmarked) [Compound 31, 1-cyclopropyl-5-isopropyl-9-methoxy-8-(2-methoxyethoxy)-2-oxo-5H-chromeno[4,3-b]pyridine-3-carboxylic acid], with 1 to 20 nM.

The IC50 is the concentration that inhibits the measured activity by half. Low values mean higher potency, high ones lower potency.
